Measurements taken from patent US20060018921A1, “Histone deacetylase inhibitors and cognitive applications” (priority 2004, published 2006).
Entries after “also recorded” stand apart in the source; their conditions may differ.

How the values were obtained:
animals deficient in CBP = details: infusion directly into the brain of animals deficient in CBP; Korzus et al., Alarcon et al. (2004); cited from earlier work
histone H3 (Lys14) = test: Acetylation of histone H3, acute hippocampal slices, area CA1; details: slices treated 1 h; PDA 3 μM, FSK 50 μM with 100 μM Ro20-1724, 4αP 3 μM, dFSK 50 μM with 100 μM Ro20-1724, U0126 20 μM, PD98059 50 μM, TSA 1.65 μM
NMDA-Rs = test: NMDA-R mediated synaptic transmission in slices with CNQX; format: cell-based, Sprague-Dawley rats; details: TSA 1.65 μM over 3 h; CNQX 20 μM, ACSF with 4 mM CaCl2 and no MgCl2
Procedure: In FIG. 8A, slices were exposed to the AMPA-R antagonist CNQX (20 μM) and perfused with an ACSF containing 4 mM CaCl2 and no MgCl2. The resulting field potentials represent NMDA-R mediated synaptic transmission (English and Sweatt, 1997). […] Representative traces immediately before (dashed) and 186 min after (solid) introduction of TSA are shown. Calibration bar indicates 5 msec and 1 mV. In FIG. 8B, slices were exposed to both TSA (1.65 μM) and the NMDA-R antagonist AP5 (50 μM) 20 min prior to LTP induction. After induction of LTP, the AP5 was washed out but slices were still exposed to TSA. Induction of LTP in the presence of TSA was blocked by AP5 (n=8, F[89,612]=0.5, p<1). […] In FIG. 8C, depolarization was measured during a 100 Hz tetanus in slices treated with either vehicle (0.05% EtOH, n=10) or TSA (1.65 μM, n=10) for 20 min. […]
In another series of studies, the present inventors investigated the possibility that TSA was affecting properties of NMDA-Rs. To directly measure any long-term affects of TSA on NMDA-Rs, field potentials were recorded in the presence of the AMPA-R antagonist CNQX to isolate the NMDA-R-dependent component of synaptic transmission. […] To further explore the potential affects of TSA on synaptic transmission, we measured the depolarization that occurs during the 100 Hz tetanus used to induce LTP.

[1] = system: histone H4 (Lys5/Lys8/Lys12/Lys16); test: Acetylation of histone H4, acute hippocampal slices, area CA1; details: slices treated 1 h; TSA 1.65 μM
ERK2 = test: P-ERK2 western blot, acute hippocampal slices, area CA1; details: slices treated 1 h; PDA 3 μM, FSK 50 μM with 100 μM Ro20-1724, U0126 20 μM, PD98059 50 μM, 4αP 3 μM, dFSK 50 μM with 100 μM Ro20-1724, TSA
[2] = system: Schaffer-collateral synapses; test: Slice electrophysiology, basal synaptic transmission (baseline fEPSP, input/output, paired-pulse facilitation, tetanus depolarization); format: cell-based, Sprague-Dawley rats
ras transformed cells = details: Taunton et al., 1996; cited from earlier work
[3] = mouse model; Takahashi et al., 1996; cited from earlier work

CC(/C=C/C(=O)NO)=C\[C@@H](C)C(=O)c1ccc(N(C)C)cc1 [TSA, trichostatin A]
performance in long-term memory tasks (animals deficient in CBP): improved the animals' performance in some long-term memory tasks | histone H3 acetylation (histone H3 (Lys14)): significantly increased acetylation of H3; also recorded: increased acetylation of histone H3 | NMDA-R mediated synaptic transmission (NMDA-Rs): unaffected; also recorded: no short or long-term effects | histone H4 acetylation [1]: increased the acetylation of histone H4; also recorded: significant effect on H4 acetylation | levels of P-ERK2 (ERK2): without affecting levels of P-ERK2; also recorded: no effect on P-ERK2 | input/output relationships and PPF, slices treated with DRB vs DRB and TSA ([2]; 20 min and 3 h after application, data not shown): no significant differences in basal synaptic transmission | depolarization during 100 Hz tetanus, area under the curve ([2]; TSA 1.65 μM for 20 min vs vehicle 0.05% EtOH): No significant difference in area under the curve | input/output relationships ([2]; TSA for 20 min vs vehicle): no significant effect; also recorded: No significant differences | paired-pulse facilitation ([2]; TSA for 20 min vs vehicle): no significant effect; also recorded: unaffected | input/output relationships ([2]; TSA for 3 h vs vehicle): no significant effect; also recorded: No significant differences | paired-pulse facilitation ([2]; TSA for 3 h vs vehicle): no significant effect; also recorded: unaffected | baseline synaptic efficacy where LTP was not induced ([2]; continuous TSA, up to 3 h after start of treatment): no effect on synaptic transmission in the absence of high-frequency stimulation; also recorded: no effect on baseline synaptic efficacy | hyperacetylation (ras transformed cells): induce hyperacetylation | morphology of ras transformed cells (ras transformed cells): cause reversion of ras transformed cells to normal morphology | immunosuppression [3]: induces immunosuppression in a mouse model
